Experimental data as given in the RepoRT retention time repository.

assay: RP, Waters ACQUITY UPLC HSS T3, 100 × 2.1 mm, 1.8 µm, 0.3 mL/min, estimated dead time 0.73 min; A: water + 0.1% formic acid, pH 3; B: methanol + 0.1% formic acid, pH 3; gradient (min/%B) 0/1 1/15 4/35 7/95 9/95 10/1 14/95; conditions: stereoisomer not certain

Row | SMILES | LC retention time
1 | Cc1cc2nc3c(=O)[nH]c(=O)nc-3n(CC(O)C(O)C(O)CO)c2cc1C (configuration not stated) [riboflavin] | 7.22 min
2 | CC(=O)C1CCC2C3CCC4=CC(=O)CCC4(C)C3CCC12C (configuration not stated) [progesterone] | 10.1 min
3 | O=[N+]([O-])c1ccccc1O [2-nitrophenol] | 8.45 min
4 | O=c1ccn(C2OC(CO)C(O)C2O)c(=O)[nH]1 (configuration not stated) [uridine] | 2.2 min
5 | CC12CCC3c4ccc(O)cc4CCC3C1CCC2O (configuration not stated) [estradiol] | 19.7 min
6 | CC(CCC(=O)NCC(=O)O)C1CCC2C3C(O)CC4CC(O)CCC4(C)C3CC(O)C12C (configuration not stated) [sodium glycocholate hydrate] | 11 min

The remaining lines, values ahead:

Row | LC retention time | SMILES
7 | 4.45 min | NC(Cc1ccccc1)C(=O)O (configuration not stated) [phenylalanine]
8 | 2.53 min | CC(C)CC(N)C(=O)O (configuration not stated) [leucine]
9 | 1.21 min | CSCCC(N)C(=O)O (configuration not stated) [methionine]
10 | 5.45 min | NC(Cc1c[nH]c2ccccc12)C(=O)O (configuration not stated) [tryptophan]
11 | 1.07 min | O=C1CC(C(=O)O)NC(=O)N1 [L-dihydroorotic acid]
12 | 8.41 min | O=C(O)CC(O)(CC(=O)O)C(=O)O [citric acid monohydrate]
